Laboratory results: US20100267561A1, “HERBICIDAL PYRIDAZINONE DERIVATIVES” (priority 2007, published 2010)
Read-outs that look alike come from different tables or passages of the source.

Assays:
Test in all cases: Test B flooded paddy test plant response
Type in all cases: in vivo
[1] = tested on: barnyardgrass (Echinochloa crus-galli); conditions: Echinochloa crus-galli, read-out: Plant response rating, Barnyardgrass; for pest or weed control at 62 g/ha: 62 g ai/ha; for pest or weed control at 250 g/ha: 250 g ai/ha
Method in brief: (§1)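 Compounds were added directly to paddy water over 2-leaf-stage plants in pots flooded 3 cm above soil, water depth maintained. Visual injury scored against controls after 13 to 15 days in greenhouse, 0 (none) to 100 (complete control); dash indicates no result.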

[2] = tested on: ducksalad (Heteranthera limosa); conditions: Heteranthera limosa, read-out: Plant response rating, Ducksalad; for pest or weed control at 62 g/ha: 62 g ai/ha; for pest or weed control at 250 g/ha: 250 g ai/ha
Method in brief: as §1

[3] = tested on: rice (Oryza sativa); conditions: Oryza sativa, read-out: Plant response rating, Rice; for plant injury at 62 g/ha: 62 g ai/ha; for plant injury at 250 g/ha: 250 g ai/ha
Method in brief: as §1

[4] = tested on: umbrella sedge (Cyperus difformis); conditions: Cyperus difformis, read-out: Plant response rating, Sedge, Umbrella; for pest or weed control at 62 g/ha: 62 g ai/ha; for pest or weed control at 250 g/ha: 250 g ai/ha
Method in brief: as §1

[5] = Flood (flooded paddy test), scale 0 to 100, 0 no effect, 100 complete control
[6] = Flood (flooded paddy test), 125 g ai/ha, scale 0 to 100, 0 no effect, 100 complete control
[7] = Flood, 31 g ai/ha, scale 0 to 100

Cc1cc(-c2ccc(Br)cc2)nn1-c1c(O)cnn(C2CCCCO2)c1=O (centres unmarked) [Compound 77, 4-[3-(4-bromophenyl)-5-methyl-1H-pyrazol-1-yl]-5-hydroxy-2-(tetrahydro-2H-pyran-2-yl)-3(2H)-pyridazinone]
0%: pest or weed control at 62 g/ha [1, 5] | pest or weed control at 125 g/ha [1, 6] | pest or weed control at 250 g/ha [1, 5] | pest or weed control at 31 g/ha [1, 7] | pest or weed control at 62 g/ha [2, 5] | pest or weed control at 125 g/ha [2, 6] | pest or weed control at 250 g/ha [2, 5] | pest or weed control at 31 g/ha [2, 7] | plant injury at 62 g/ha [3, 5] | plant injury at 125 g/ha [3, 6] | plant injury at 250 g/ha [3, 5] | plant injury at 31 g/ha [3, 7] | pest or weed control at 62 g/ha [4, 5] | pest or weed control at 125 g/ha [4, 6] | pest or weed control at 250 g/ha [4, 5] | pest or weed control at 31 g/ha [4, 7]

Cc1cn(-c2ccc(C(F)(F)F)cc2)nc1-c1c(O)cnn(C)c1=O [Compound 85, 5-hydroxy-2-methyl-4-[4-methyl-1-[4-(trifluoromethyl)phenyl]-1H-pyrazol-3-yl]-3(2H)-pyridazinone]
0%: pest or weed control at 250 g/ha [1, 5] | pest or weed control at 62 g/ha ([1]; Flood, scale 0 to 100) | pest or weed control at 250 g/ha [2, 5] | pest or weed control at 62 g/ha ([2]; Flood, scale 0 to 100) | plant injury at 250 g/ha [3, 5] | plant injury at 62 g/ha ([3]; Flood, scale 0 to 100) | pest or weed control at 250 g/ha [4, 5] | pest or weed control at 62 g/ha ([4]; Flood, scale 0 to 100)

Cn1ncc(O)c(-c2nn(-c3ccc(C(F)(F)F)cc3)cc2Br)c1=O [Compound 87, 4-[4-bromo-1-[4-(trifluoromethyl)phenyl]-1H-pyrazol-3-yl]-5-hydroxy-2-methyl-3(2H)-pyridazinone]
0%: pest or weed control at 250 g/ha [1, 5] | pest or weed control at 62 g/ha ([1]; Flood, scale 0 to 100) | pest or weed control at 250 g/ha [2, 5] | pest or weed control at 62 g/ha ([2]; Flood, scale 0 to 100) | plant injury at 250 g/ha [3, 5] | plant injury at 62 g/ha ([3]; Flood, scale 0 to 100) | pest or weed control at 250 g/ha [4, 5] | pest or weed control at 62 g/ha ([4]; Flood, scale 0 to 100)
